Tests used:
[1] = rat, in vivo
Description: SCI injury model. This study was performed in accordance with the guidelines of the Institutional Animal Care and Use Committee. Adult female Long-Evans rats (275-350 gm) were anesthetized (Ketamine, 60 mg/kg plus Xylazine, 7.5 mg/kg, i.p.). The dura at C4-5 was exposed via a left hemilaminectomy. A hemi-cervical spinal cord contusion was created using a blunt force impactor (1.3-mm impactor head driven by a 10 gm weight dropped vertically 25 mm) (Soblo sky et al., 2001; Gensel et al., 2006). After SCI, animals were given 10 ml of glucose-free normal saline s.q. Rectal temperature was maintained at ˜37° C. using a servo-controlled warming blanket. Blood gases and serum glucose 10-15 min post-SCI were: pO2, 95±6 mm Hg; pCO2, 46±3 mm Hg; pH, 7.33±0.01; glucose 258±17 mg/dl in controls and pO2, 96±7 mm Hg; pCO2, 45±2 mm Hg; pH, 7.37±0.01; glucose 242±14 mg/dl in glibenclamide-treated animals.
Drug delivery. […] During the course of the project, slightly different formulations of drug were used, with the best results obtained using stock solutions made by placing 50 mg (or 25 mg) of drug into 10 ml DMSO, and infusion solutions made by placing 400 μl (or 800 μl) stock into 4.6 ml (or 4.2 ml) unbuffered saline (0.9% NaCl) and adjusting the pH to ˜8.5 using 0.1 N NaOH.

rats with percussion-TBI = experiment: Percussion-TBI rats: extravasated blood (progressive secondary hemorrhage); assay type: in vivo, rat
Description: Young adult male Long-Evans rats, 240-280 gm, were studied. Rats were anesthetized (Ketamine and Xylazine) and physiological parameters including temperature and blood gases were maintained within appropriate physiological ranges. With the head fixed in a stereotaxic frame, a 6-mm circular craniectomy was created abutting the sagittal and lambdoidal sutures. A posterior location was chosen to emphasize damage to underlying hippocampus (Vink et al., 2001; Floyd et al., 2002). […] Sham controls underwent craniectomy without percussion.

[2] = Testing of glibenclamide doses for effect on serum glucose in rats; assay type: in vivo, rat; conditions: dose1-dose4 (loading 2.5-20 μg/kg i.p., infusion 75-600 ng/hr s.q.); uninjured, stroke and SCI rats
[3] = tested on: rodent models of ischemic stroke; conditions: cited from earlier work
[4] = model of malignant cerebral edema

## COc1ccc(Cl)cc1C(=O)NCCc1ccc(S(=O)(=O)NC(=O)NC2CCCCC2)cc1 [glibenclamide]
[1]
  serum glucose: 242 ± 14 mg/dL
Rats with percussion-TBI; 6 and 24 hr post-TBI, vs vehicle
  extravasated blood at later times: prevented further increases in blood
Rats with percussion-TBI; ½ hr post-TBI
  volume of blood in brain homogenate: did not affect
[2]
  effect of doses on serum glucose: only the highest are hypoglycemogenic, but only mildly so
[3]; [4]
  reduction of cerebral edema (excess water): half
  reduction of mortality: half
[3]; stroke induced by thromboemboli
  reduction of lesion volume: half

— patent publication US20110263478A1, “SUR1 INHIBITORS FOR THERAPY” (priority 2008, published 2011)
